{
  "source": "ChEMBL document CHEMBL4266054",
  "about": "“Kinase Inhibitors for Treatment of Cancer and Inflammation” (ACS Med Chem Lett, 2018)",
  "key": {"[1]": {"biological_target": "T1, Serine/threonine-protein kinase TBK1 (Homo sapiens) (UniProt Q9UHD2)", "T1 sequence (whole entry)": "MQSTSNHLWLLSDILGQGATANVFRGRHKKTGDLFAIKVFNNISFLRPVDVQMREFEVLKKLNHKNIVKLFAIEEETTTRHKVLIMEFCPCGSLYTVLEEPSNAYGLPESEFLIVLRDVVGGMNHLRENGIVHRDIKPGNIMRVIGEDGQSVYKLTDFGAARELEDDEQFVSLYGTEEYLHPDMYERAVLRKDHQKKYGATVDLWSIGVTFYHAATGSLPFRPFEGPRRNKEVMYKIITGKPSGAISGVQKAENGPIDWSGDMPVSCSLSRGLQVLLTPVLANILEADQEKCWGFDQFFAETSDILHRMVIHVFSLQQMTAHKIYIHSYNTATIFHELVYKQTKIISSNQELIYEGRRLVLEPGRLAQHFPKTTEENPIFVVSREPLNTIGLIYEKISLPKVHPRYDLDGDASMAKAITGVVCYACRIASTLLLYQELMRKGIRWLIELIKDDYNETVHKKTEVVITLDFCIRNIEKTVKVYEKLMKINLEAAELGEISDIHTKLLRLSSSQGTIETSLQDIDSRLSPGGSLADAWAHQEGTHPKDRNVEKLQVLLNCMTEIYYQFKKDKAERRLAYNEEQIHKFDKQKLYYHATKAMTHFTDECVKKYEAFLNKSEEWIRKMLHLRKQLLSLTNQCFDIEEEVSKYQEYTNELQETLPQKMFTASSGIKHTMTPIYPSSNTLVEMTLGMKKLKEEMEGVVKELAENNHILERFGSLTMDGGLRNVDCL", "test": "Inhibition of TBK1 (unknown origin) using fluorescein-labelled DRHDSGLDSMKDE as substrate after 1 hr by TR-FRET assay"}, "[2]": {"biological_target": "T2, Inhibitor of nuclear factor kappa-B kinase subunit epsilon (Homo sapiens) (UniProt Q14164)", "T2 sequence (whole entry)": "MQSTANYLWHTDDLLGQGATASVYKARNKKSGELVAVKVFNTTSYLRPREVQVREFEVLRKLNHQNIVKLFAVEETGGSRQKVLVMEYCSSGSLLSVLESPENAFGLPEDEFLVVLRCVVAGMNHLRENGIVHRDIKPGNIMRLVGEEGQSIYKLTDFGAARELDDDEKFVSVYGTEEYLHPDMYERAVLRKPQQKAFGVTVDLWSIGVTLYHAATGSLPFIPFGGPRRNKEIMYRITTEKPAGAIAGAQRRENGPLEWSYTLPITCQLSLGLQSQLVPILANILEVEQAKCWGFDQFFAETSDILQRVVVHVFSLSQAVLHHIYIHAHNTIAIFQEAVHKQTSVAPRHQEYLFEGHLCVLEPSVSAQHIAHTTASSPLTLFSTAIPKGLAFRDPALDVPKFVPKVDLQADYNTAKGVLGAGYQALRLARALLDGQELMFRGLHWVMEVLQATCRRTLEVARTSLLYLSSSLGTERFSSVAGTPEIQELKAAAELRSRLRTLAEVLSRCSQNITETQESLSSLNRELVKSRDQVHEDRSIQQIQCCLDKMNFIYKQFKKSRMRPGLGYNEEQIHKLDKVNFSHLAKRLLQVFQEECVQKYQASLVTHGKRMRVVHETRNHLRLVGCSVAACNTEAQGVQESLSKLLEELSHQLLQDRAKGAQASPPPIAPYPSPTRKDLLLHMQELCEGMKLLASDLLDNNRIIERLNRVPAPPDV", "test": "Inhibition of IKK-epsilon (unknown origin) using fluorescein-labelled DRHDSGLDSMKDE as substrate after 1 hr by TR-FRET assay"}, "[3]": {"biological_target": "Serine/threonine-protein kinase SIK2 (Homo sapiens) (UniProt Q9H0K1)", "sequence (Q9H0K1 whole entry, looked up)": "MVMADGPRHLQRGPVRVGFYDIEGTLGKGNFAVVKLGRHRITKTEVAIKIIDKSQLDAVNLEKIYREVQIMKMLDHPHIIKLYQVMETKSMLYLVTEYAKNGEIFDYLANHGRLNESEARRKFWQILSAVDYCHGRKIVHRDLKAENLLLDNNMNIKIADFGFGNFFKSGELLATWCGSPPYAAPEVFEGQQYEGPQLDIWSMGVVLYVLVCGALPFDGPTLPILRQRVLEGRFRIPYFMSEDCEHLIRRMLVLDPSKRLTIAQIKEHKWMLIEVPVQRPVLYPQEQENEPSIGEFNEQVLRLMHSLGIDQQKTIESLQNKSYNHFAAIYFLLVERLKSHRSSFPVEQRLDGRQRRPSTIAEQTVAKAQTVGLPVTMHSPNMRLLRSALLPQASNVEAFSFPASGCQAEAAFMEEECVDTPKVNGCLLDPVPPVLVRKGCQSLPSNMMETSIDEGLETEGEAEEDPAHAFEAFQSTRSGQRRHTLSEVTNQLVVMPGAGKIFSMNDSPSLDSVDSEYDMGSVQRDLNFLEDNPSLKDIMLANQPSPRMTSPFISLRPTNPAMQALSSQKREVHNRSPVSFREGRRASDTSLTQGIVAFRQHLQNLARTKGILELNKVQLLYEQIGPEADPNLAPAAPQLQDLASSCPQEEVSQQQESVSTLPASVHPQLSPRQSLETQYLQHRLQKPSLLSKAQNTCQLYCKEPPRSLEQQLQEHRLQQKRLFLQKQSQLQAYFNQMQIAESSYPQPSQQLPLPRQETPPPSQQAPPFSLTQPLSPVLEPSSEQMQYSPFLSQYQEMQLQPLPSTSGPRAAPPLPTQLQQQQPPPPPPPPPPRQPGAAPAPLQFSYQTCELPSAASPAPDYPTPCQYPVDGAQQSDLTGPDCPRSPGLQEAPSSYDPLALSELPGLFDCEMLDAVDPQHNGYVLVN", "test": "Inhibition of human SIK2 using AMARAASAAALARRR as substrate in presence of [gamma33P]ATP by kinase hotspot assay"}, "[4]": {"test": "Half life in Balb/c mouse at 0.5 mg/kg, iv by mass spectrometry", "type": "ADME, organism-based", "conditions": "in vivo"}, "[5]": {"test": "Volume of distribution in Balb/c mouse at 0.5 mg/kg, iv by mass spectrometry", "type": "ADME, organism-based", "conditions": "in vivo"}},
  "data": [
    {"smiles": "CN1CCN(Cc2ccc(Nc3nccc(-c4cnc(N5CC[C@H](F)C5)c(C#N)c4)n3)cn2)CC1", "values": [
      {"measurement": "INH", "setting": "[1]", "value": 17, "unit": "nM"},
      {"measurement": "INH", "setting": "[2]", "value": 24, "unit": "nM"}
    ]},
    {"smiles": "CCN1CCN(Cc2ccc(Nc3nccc(-c4cnc(N5CC[C@H](F)C5)c(C#N)c4)n3)cn2)CC1", "values": [
      {"measurement": "INH", "setting": "[1]", "value": 9, "unit": "nM"},
      {"measurement": "INH", "setting": "[2]", "value": 16, "unit": "nM"},
      {"measurement": "INH", "setting": "[3]", "value": 7, "unit": "nM"}
    ]},
    {"smiles": "CCN1CCN(Cc2ccc(Nc3nccc(-c4cnc(N5CC[C@@H](F)C5)c(C#N)c4)n3)cn2)CC1", "values": [
      {"measurement": "INH", "setting": "[1]", "value": 20, "unit": "nM"},
      {"measurement": "INH", "setting": "[2]", "value": 21, "unit": "nM"}
    ]},
    {"smiles": "N#Cc1cc(-c2ccnc(Nc3ccc(NC(=O)CN4CCOCC4)nc3)n2)cnc1N1CC[C@H](F)C1", "values": [
      {"measurement": "INH", "setting": "[1]", "value": "< 30", "unit": "nM"},
      {"measurement": "INH", "setting": "[2]", "value": "< 30", "unit": "nM"},
      {"measurement": "half-life", "setting": "[4]", "value": 30, "unit": "min"}
    ]},
    {"smiles": "N#Cc1cc(-c2ccnc(Nc3ccc(CN4CCNC(=O)C4)nc3)n2)cnc1N1CC[C@H](F)C1", "values": [
      {"measurement": "INH", "setting": "[1]", "value": "< 15", "unit": "nM"},
      {"measurement": "INH", "setting": "[2]", "value": "< 15", "unit": "nM"}
    ]},
    {"smiles": "N#Cc1cc(-c2ccnc(Nc3ccc(CN4CCOCC4)nc3)n2)cnc1N1CC[C@H](F)C1", "values": [
      {"measurement": "INH", "setting": "[1]", "value": "< 15", "unit": "nM"},
      {"measurement": "INH", "setting": "[2]", "value": "< 15", "unit": "nM"},
      {"measurement": "Vd", "setting": "[5]", "value": 0.3, "unit": "L/kg"},
      {"measurement": "half-life", "setting": "[4]", "value": 30, "unit": "min"}
    ]}
  ]
}
